Experimental data published in patent publication US20250319056A1, “METHODS FOR TREATING CANCER” (THE TRUSTEES OF INDIANA UNIVERSITY, priority 2024, published 2025).
Where two headings read alike, the source gives them in different places.

What was measured:
[1] = AlamarBlue cell viability assay, non-cancerous colon FHC cells; conditions: human
HCT-116 cells = assay: AlamarBlue cell viability assay, HCT-116 colon cancer cells; format: cell-based, human; conditions: for Average Selectivity Index: CC50 non-cancer cells (FHC, FHs 74Int) compared to EC50 HCT-116; for EC50: AlamarBlue, 48 h with compound, read-out: Human Cell Viability EC50 Colon Cancer (HCT 116)
[2] = AlamarBlue cell viability assay, non-cancerous intestine FHs-74Int cells; conditions: human
DLD-1 cells = assay: AlamarBlue cell viability assay, DLD-1 colon cancer cells; format: cell-based; conditions: Homo sapiens, 48 h with compound, ^BP = curve baseline plateaued between ~10-20%, read-out: Human Cell Viability EC50 Colon Cancer (DLD1)
HT-29 cells = assay: AlamarBlue cell viability assay, HT-29 colon cancer cells; format: cell-based; conditions: Homo sapiens, 48 h with compound, ^BP = curve baseline plateaued between ~10-20%
[3] = FHC non-cancerous colon cells, Human Cell Viability CC50 Colon (FHC), non-cancerous colon cells, AlamarBlue, 48 h
[4] = FHs-74Int non-cancerous intestine cells, Human Cell Viability CC50 Intestine (FHs 74Int), non-cancerous intestine cells, AlamarBlue, 48 h

Compound	CC50 at 48 h [1, 3]	Average Selectivity Index (HCT-116 cells)	EC50 (HCT-116 cells; Homo sapiens, HCT-116, 48 h)	CC50 at 48 h [2, 4]	CC50 at 48 h [1]	CC50 at 48 h [2]	EC50 (HCT-116 cells; trihydrate)	Average Selectivity Index (HCT-116 cells; trihydrate)	EC50 (DLD-1 cells)	EC50 (HT-29 cells)
CC(=O)O[C@H]1C(=O)[C@@]2(C)[C@H]([C@H](OC(=O)c3ccccc3)[C@]3(O)C[C@H](OC(=O)[C@H](O)[C@@H](NC(=O)c4ccccc4)c4ccccc4)C(C)=C1C3(C)C)[C@]1(OC(C)=O)CO[C@@H]1C[C@@H]2O [Compound 70, Paclitaxel, reference compound]	> 100 µM	2222.2	< 0.045 µM	> 100 µM	–	–	–	–	–	–
COc1cc(NC(C)CCCN)c2ncccc2c1 (centres unmarked) [Compound 71, Primaquine, reference compound]	77.4 µM	–	–	56.6 µM	–	–	–	–	–	–
CC[n+]1c(-c2ccccc2)c2cc(N)ccc2c2ccc(N)cc21 [Compound 73, Ethidium bromide, reference compound]	–	–	–	–	> 100 µM	> 100 µM	–	–	–	–
CN(C)c1ccc2nc3ccc(=[N+](C)C)cc-3sc2c1 [Compound 74, Methylene blue trihydrate, reference compound]	31.3 µM	–	2.3 to 11 µM	23.4 µM	–	–	2.3 µM	11.9	–	–
CC(C)n1c(/C=C/C(O)CC(O)CC(=O)O)c(-c2ccc(F)cc2)c2ccccc21 (centres unmarked) [Compound 82, Fluvastatin sodium, reference compound]	> 100 µM	11.6	–	> 100 µM	–	–	–	–	–	–
O=C(N/N=C/c1ccc([N+](=O)[O-])o1)c1cccs1 [Compound 120]	84 µM	7.4	9.1 µM	50 µM	–	–	–	–	14 µM	3.6 µM
O=C(N/N=C/c1ccc([N+](=O)[O-])o1)c1ccc(Cl)s1 [Compound 121]	51 µM	6.2	8.2 µM	49 µM	–	–	–	–	8 µM	5.7 µM
O=C(N/N=C/c1ccc([N+](=O)[O-])o1)c1ccccc1 [Compound 122]	> 100 µM	6.5	13 µM	71 µM	–	–	–	–	18 µM	4.9 µM
O=C(N/N=C/c1ccc([N+](=O)[O-])o1)c1ccncc1 [Compound 123]	70 µM	2.6	28 µM	75 µM	–	–	–	–	–	–
COc1ccc(C(=O)N/N=C/c2ccc([N+](=O)[O-])o2)cc1 [Compound 124]	> 100 µM	16.1	4.6 µM	47 µM	–	–	–	–	7.6 µM	2.7 µM
CN(C)c1ccc(C(=O)N/N=C/c2ccc([N+](=O)[O-])o2)cc1 [Compound 125]	> 100 µM	11.8	8.5 µM	> 100 µM	–	–	–	–	> 100 µM	0.29 µM
O=C(N/N=C/c1ccc([N+](=O)[O-])o1)c1cccc2ccccc12 [Compound 126]	58 µM	5.7	9.6 µM	52 µM	–	–	–	–	11 µM	4.4 µM
O=C(N/N=C/c1ccc([N+](=O)[O-])o1)c1ccccc1Oc1ccccc1 [Compound 127]	49 µM	–	11 µM	55 µM	–	–	–	–	26 µM	–
CCN(CC)S(=O)(=O)c1cccc(C(=O)N/N=C/c2ccc([N+](=O)[O-])o2)c1 [Compound 129]	> 100 µM	12.0	7.8 µM	8.7 µM	–	–	–	–	8.9 µM	4.2 µM
O=C(N/N=C/c1ccc([N+](=O)[O-])o1)c1ccc(NS(=O)(=O)c2cccs2)cc1 [Compound 130]	> 100 µM	9.3	9.1 µM	69 µM	–	–	–	–	57 µM	8.1 µM
O=C(N/N=C/c1ccc([N+](=O)[O-])o1)c1ccc(NS(=O)(=O)c2ccc(Br)cc2)cc1 [Compound 131]	> 100 µM	18.8	5.3 µM	> 100 µM	–	–	–	–	29 µM	3.6 µM
CCOc1ccc(S(=O)(=O)Nc2ccc(C(=O)N/N=C/c3ccc([N+](=O)[O-])o3)cc2)cc1 [Compound 132, 4-ethoxy-N-(4-(2-((5-nitrofuran-2-yl)methylene)hydrazine-1-carbonyl)phenyl)benzenesulfonamide]	89 µM	52.0	1.8 µM	> 100 µM	–	–	–	–	18 µM	2.3 µM
O=C1CN(/N=C/c2ccc(O)c3ncccc23)C(=O)N1 [Compound 133]	> 100 µM	2.6	39 µM	> 100 µM	–	–	–	–	–	–
CC1CS(=O)(=O)CCN1/N=C/c1ccc(O)c2ncccc12 (centres unmarked) [Compound 134]	> 100 µM	13	7 µM	87 µM	–	–	–	–	6.3 µM	8.1 µM
O=C(N/N=C/c1ccc(O)c2ncccc12)c1cccs1 [Compound 135]	85 µM	27	3.2 µM	86 µM	–	–	–	–	2.3 µM	3.6 µM
O=C(N/N=C/c1ccc(O)c2ncccc12)c1ccc(Cl)s1 [Compound 136]	25 µM	8.8	3.8 µM	42 µM	–	–	–	–	3.9 µM	3.2 µM
O=C(N/N=C/c1ccc(O)c2ncccc12)c1ccncc1 [Compound 138]	> 100 µM	1.8	48 µM	69 µM	–	–	–	–	–	–
CN(C)c1ccc(C(=O)N/N=C/c2ccc(O)c3ncccc23)cc1 [Compound 140]	35 µM	8.8	4.4 µM	42 µM	–	–	–	–	–	2.4 µM
COc1ccc(C(=O)N/N=C/c2ccco2)cc1 [Compound 158]	> 100 µM	1.0	> 100 µM	> 100 µM	–	–	–	–	–	–
O=Cc1ccc(O)c2ncccc12 [Compound 159]	4.4 µM	1.6	6.2 µM	15 µM	–	–	–	–	–	–
O=Cc1ccc([N+](=O)[O-])o1 [Compound 160]	53 µM	1.9	29 µM	53 µM	–	–	–	–	–	–
COc1ccc(C(=O)NN)cc1 [Compound 161]	> 100 µM	1.0	> 100 µM	> 100 µM	–	–	–	–	–	–
CC1CS(=O)(=O)CCN1/N=C/c1ccc([N+](=O)[O-])o1 (centres unmarked) [Nifurtimox (Nfx - 106), Nifurtimox, reference compound]	> 100 µM	1.0	> 100 µM	> 100 µM	–	–	–	–	–	–
O=C1CN(/N=C/c2ccc([N+](=O)[O-])o2)C(=O)N1 [Nitrofurantoin (Nft), Nitrofurantoin, reference compound]	> 100 µM	1.1	95 µM	> 100 µM	–	–	–	–	–	–
O=[N+]([O-])c1ccc(O)c2ncccc12 [Nitroxoline, reference compound]	28 µM	1.6	22 µM	41 µM	–	–	–	–	–	–
